Measurements reported in patent US10143747B2, “Breast cancer therapeutics” (IMBA—INSTITUT FÜR MOLEKULARE BIOTECHNOLOGIE GMBH, priority 2010, dated 2018).

How the values were obtained:
RANKL [1] = assay: RANKL mRNA in purified mammary epithelial cells by qRT-PCR after MPA pellet implantation; format: in vivo, mouse
Protocol: (§1) a,b, Induction of RANKL expression by the progesterone-derivative MPA. Nulliparous wild type females were s.c. implanted with slow-release MPA pellets or treated with surgery sham. a, RANKL mRNA was determined in purified mammary epithelial cells by qRT-PCR three days after implantation. Data are shown as fold change compared to sham treatment (+/−sem) (n=3). b, In situ […] immunostaining of progesterone receptor (PR, red) and RANKL (green) in mammary epithelial cells after 3d MPA treatment. c, Induction of soluble RANKL protein assayed on isolated mammary gland epithelial cells from control, but not in prolactin receptor mutant (PRL-R KO) females on day 3 after s.c. MPA implantation. Mammary glands from sham operated control litter-mates and PRL-R KO females are shown as controls. d, Epithelial proliferation in mammary glands of control littermates and RANK^Δmam females 3 days after sham treatment and MPA implantation. Proliferation was determined by in situ Ki67 immunostaining. e,f, Marked increase of the stem cell-enriched CD24^+CD49^high population (MaSC) in MPA-treated mammary glands in control but not in RANK^Δmam mammary glands. e, Representative FACS profiles showing CD24 and CD49 expression of lineage negative (CD31^− (endothelial cells) CD45^− (hematopoietic cells) […] (erythroid cells)) of mammary MaSCs from MPA- or sham-treated 8-week old virgin females. f, Quantification of MaSC-enriched CD24^+CD49^high population from mammary glands of MPA- or sham-treated virgin RANK^Δmam and littermate control females. For all MaSCs experiments mice were treated with MPA for 3 days. n=4 per group+/−sem. *P<0.05; ***P<0.001 (Student's t-test).
a-d, Induction of RANKL expression by the progesterone-derivative MPA. […] Numbers indicate amino acid residues. c, Expression of total (t) RANKL, RANKL1, RANKL2, and RANKL3 mRNA in purified mammary epithelial cells after three days MPA treatment. β-actin is shown as a control. d, Representative agarose gel of RT-PCR products as in c. e, mRNA expression of various proteases known to shed RANKL from the surface of cells. mRNA was determined in purified mammary epithelial cells by qRT-PCR three days after MPA implantation. […]
a,b, MPA induces RANKL expression in mammary epithelial cells. Nulliparous wild type females were treated with oral gavage of DMBA or oil vehicle, s.c. implanted with slow-release MPA pellets, or treated with sham surgery. a, RANKL mRNA was determined in purified mammary epithelial cells by qRT-PCR 3 days after implantation/oral gavage. […]

RANKL [2] = assay: RANKL protein in mammary gland / isolated mammary epithelial cells (immunostaining, Western blot) after MPA implantation; format: in vivo, mouse
Protocol: as §1
a-d, Induction of RANKL expression by the progesterone-derivative MPA. Nulliparous wild type females were s.c. implanted with slow-release MPA pellets or treated with surgery sham. a, Expression of transmembrane (tm) and soluble (s) RANKL protein was assayed on isolated mammary gland epithelial cells by Western blot 3 and 6 days after MPA pellet implantation or sham surgery. β-actin is shown as a loading control. Recombinant murine sRANKL and recombinant human tmRANKL protein are shown for molecular size comparison in the right panels. […] Numbers indicate amino acid residues. c, Expression of total (t) RANKL, RANKL1, RANKL2, and RANKL3 mRNA in purified mammary epithelial cells after three days MPA treatment. β-actin is shown as a control. d, Representative agarose gel of RT-PCR products as in c. e, mRNA expression of various proteases known to shed RANKL from the surface of cells. mRNA was determined in purified mammary epithelial cells by qRT-PCR three days after MPA implantation. […]

[3] = test system: human breast cancer cells as well as cultured MECs; assay: RANKL mRNA expression in human breast cancer cells and cultured MECs after MPA stimulation in vitro; format: cell-based; conditions: MPA 0.1 μM
Protocol: a, Analysis of RANKL mRNA expression in human breast cancer cells as well as cultured MECs after MPA stimulation (0.1 μM). Expression was determined by qRT-PCR in unstimulated cells or cells stimulated with MPA for the indicated time points. […] Data were obtained by qRT-PCR and are shown as fold change compared to MCF10A (b) and purified primary MECs (c) (+/−sem) (n=3).
MPA (medroxyprogesterone acetate, a representive progestin) pellets were implanted into female mice and RANKL expression was assayed. […] Since MPA can induce transcription of prolactin and the prolactin receptor in breast cancer cells and prolactin can directly induce RANKL via Jak2/Stat5 signaling, it was tested whether MPA induces RANKL in the mammary gland of prolactin receptor knock-out mice.

## CC(=O)O[C@]1(C(C)=O)CC[C@H]2[C@@H]3C[C@H](C)C4=CC(=O)CC[C@]4(C)[C@H]3CC[C@@]21C [MPA, medroxyprogesterone acetate]
RANKL [1]; 3 days after MPA implantation, qRT-PCR
  mRNA of proteases known to shed RANKL (MMP14, ADAM17/TACE): induction of MMP14 and ADAM17/TACE
RANKL [1]; 3 days after implantation/oral gavage, qRT-PCR and Western blot
  RANKL mRNA and protein expression in purified mammary epithelial cells: induced RANKL mRNA and protein expression
RANKL [1]; MPA pellets implanted
  mRNA expression of RANK, OPG, PTHrP and TRAIL in isolated mammary epithelial cells: not changed
RANKL [1]; s.c. slow-release MPA pellets, 3 days, vs sham, wild type females
  induction of RANKL mRNA in isolated mammary epithelial cells: more than 2000 fold
RANKL [2]; 3 and 6 days after MPA pellet implantation
  19 kDa soluble form of RANKL, Western blotting of isolated mammary epithelial cells: induction of the 19 kDa soluble form of RANKL
RANKL [2]; 3 d MPA treatment
  RANKL protein in the mammary gland, immunohistochemistry: induction of RANKL protein in the mammary gland
RANKL [2]; female control mice, day 3 after s.c. MPA implantation
  RANKL protein production: triggers substantial production of RANKL protein
RANKL [2]; prolactin receptor mutants (PRL-R KO), day 3 after s.c. MPA implantation
  RANKL protein induction: failed to detect RANKL induction
[3]
  RANKL mRNA induction in SKBR3 cells: only slightly increased
